In patent EP0412158A1, “ONCOSTATIC DRUG” (priority 1987, dated 1988):
Where two headings read alike, the source gives them in different places. Marks after values point to notes of the source that are not given here.

Columns and labels:
[1] = tested on: human lung cancer (OAT); type: in vivo, female nude mice; conditions: 200 mg/kg ip ×10; for T/C: tumor volume
Procedure: A patch of human lung cancer [Cancer cells recommended by National Cancer Institute (NCL) of the U.S.A.] (OAT) measuring approximately 2 x 2 mm in area was subcutaneously transplanted to each of female nude mice. An aqueous solution containing the aforementioned heteropoly acid salt (Compound M) in a concentration of 10 mg/ml was administered by intraperitoneal injection (ip) to the mice at a dose of 200 mg/kg once per day for 10 consecutive days following the 12th day of transplantation. For 15 days following the stop of the administration, the volumes of tumor in the mice were measured to evaluate the effect of compound. At ip (x 10), significant suppression of hyperplasia began to appear about the 4th day. Even after completion of the administration 25th day of the transplantation, strong suppression of hyperplasia of cancer of about 50% was maintained. Generally by the NCI standard, a ratio of suppression exceeding 50% is rated as effective. Thus, the compound was confirmed to be effective. For comparison, mice to which no aqueous solution was administered were similarly tested.

[2] = tested on: human breast cancer (MX-1); type: in vivo, female nude mice; conditions: for T/C: tumor volume
Procedure: A patch of human breast cancer [cancer cells recommended by National Cancer Institute (NCI) of U.S.A.] (MX-1) measuring approximately 2 x 2 mm in area was transplanted to female nude mice 5 weeks old. For 10 days following the 17th day of the transplantation, an aqueous solution containing 1% by weight of the aforementioned isopropylammonium polymolybdate (Compound A) was administered continuously at a dose of 100 mg/kg or 200 mg/kg once per day by intraperitoneal injection (ip). After the stop of the administration, the volume of tumor was measured daily for 15 or 20 days to evaluate the effect of the compound. With either of the dose of 100 mg/kg and the dose of 200 mg/kg, significant suppression of hyperplasia began to appear around the 6th day of administration of ip (x 10). Even after the stop of the administration (25th or 30th day), a distinct suppression of cancerous hyperplasia of about 70% was retained. Generally, by the NCI standard, a ratio of suppression exceeding 50% is rated as effective. […] For comparison, similar mice to which the human cancer was transplanted and the aqueous solution was not administered were tested by following the procedure described above.

[3] = tested on: methyl cholanthrene A; assay: Methyl cholanthrene A tumor, evaluation by extension of period of survival (Examples 7 to 11); type: in vivo, female BALB/C mice; conditions: for Change in body weight: ip×9, D1~D9
Procedure: The aforementioned compounds, A to D, were severally dissolved in distilled water to obtain aqueous solutions containing the compounds in a fixed concentration of 10 mg/ml. To the female BALB/C mice (five weeks old) to which methyl cholanthrene A had been transplanted in a ratio of 1.0 x 10^5 cells per mouse, […] to determine the mices' periods of survival. For comparison, mice to which no antineoplastic drug was administered and mice to which aminonitroso urea was administered were similarly tested.

Substance: Nas [IMo6O24] • 34H2O [Compound M]
- suppression of hyperplasia of cancer ([1]; after completion of the administration, 25th day): about 50%
- Volume of tumor, Average value±SE ([1]; day 1): 457.6±59.3 mm3
- Volume of tumor, Average value±SE ([1]; day 2): 501.7±32.9 mm3
- T/C ([1]; day 2): 65.2* %
- Volume of tumor, Average value±SE ([1]; day 3): 617.0±165.7 mm3
- T/C ([1]; day 3): 58.3%
- Volume of tumor, Average value±SE ([1]; day 4): 610.0±118.1 mm3
- T/C ([1]; day 4): 40.9** %
- Volume of tumor, Average value±SE ([1]; day 5): 711.2±109.2 mm3
- T/C ([1]; day 5): 40.8** %
- Volume of tumor, Average value±SE ([1]; day 6): 1003.6±188.6 mm3
- T/C ([1]; day 6): 39.9** %
- Volume of tumor, Average value±SE ([1]; day 7): 1033.6±121.5 mm3
- T/C ([1]; day 7): 26.0** %
- Volume of tumor, Average value±SE ([1]; day 8): 1257.8±166.2 mm3
- T/C ([1]; day 8): 27.7** %
- Volume of tumor, Average value±SE ([1]; day 12): 2366.6±364.0 mm3
- T/C ([1]; day 12): 41.6** %
- Volume of tumor, Average value±SE ([1]; day 15): 4493.2±562.2 mm3
- T/C ([1]; day 15): 48.0** %
- Volume of tumor, Average value±SE ([1]; day 19): 5735.0±1038.1 mm3
- T/C ([1]; day 19): 43.3** %
- Volume of tumor, Average value±SE ([1]; day 22): 8493.2±1352.2 mm3
- T/C ([1]; day 22): 54.8** %
- Volume of tumor, Average value±SE ([1]; day 25): 9672.6±1638.0 mm3
- T/C ([1]; day 25): 53.2** %

Substance: [NH3C3H7(iso)]s (Mo7O24] • 3H2O [Compound A]
- suppression of cancerous hyperplasia ([2]; 100 mg/kg and 200 mg/kg ip ×10, after the stop of the administration (25th or 30th day)): about 70%
- Volume of tumor ([2]; 100 mg/kg ip ×10, 0 day): 278.3±22.0 mm^3
- Volume of tumor ([2]; 100 mg/kg ip ×10, 1 day): 283.3±50.8 mm^3
- T/C ([2]; 100 mg/kg ip ×10, 1 day): 67.3%
- Volume of tumor ([2]; 100 mg/kg ip ×10, 2 day): 302.3±58.6 mm^3
- T/C ([2]; 100 mg/kg ip ×10, 2 day): 58.6%
- Volume of tumor ([2]; 100 mg/kg ip ×10, 3 day): 324.7±123.5 mm^3
- T/C ([2]; 100 mg/kg ip ×10, 3 day): 60.5%
- Volume of tumor ([2]; 100 mg/kg ip ×10, 4 day): 366.3±121.7 mm^3
- T/C ([2]; 100 mg/kg ip ×10, 4 day): 60.7%
- Volume of tumor ([2]; 100 mg/kg ip ×10, 5 day): 413.7±168.8 mm^3
- T/C ([2]; 100 mg/kg ip ×10, 5 day): 57.8%
- Volume of tumor ([2]; 100 mg/kg ip ×10, 6 day): 366.0±121.3 mm^3
- T/C ([2]; 100 mg/kg ip ×10, 6 day): 44.2** %
- Volume of tumor ([2]; 100 mg/kg ip ×10, 7 day): 302.7±173.5 mm^3
- T/C ([2]; 100 mg/kg ip ×10, 7 day): 33.3** %
- Volume of tumor ([2]; 100 mg/kg ip ×10, 9 day): 397.3±226.9 mm^3
- T/C ([2]; 100 mg/kg ip ×10, 9 day): 36.9* %
- Volume of tumor ([2]; 100 mg/kg ip ×10, 10 day): 406.7±202.6 mm^3
- T/C ([2]; 100 mg/kg ip ×10, 10 day): 29.7*** %
- Volume of tumor ([2]; 100 mg/kg ip ×10, 15 day): 734.0±524.0 mm^3
- T/C ([2]; 100 mg/kg ip ×10, 15 day): 33.3* %
- Volume of tumor ([2]; 100 mg/kg ip ×10, 19 day): 994.0±613.0 mm^3
- T/C ([2]; 100 mg/kg ip ×10, 19 day): 37.4* %
- Volume of tumor ([2]; 100 mg/kg ip ×10, 21 day): 1039.0±646.0 mm^3
- T/C ([2]; 100 mg/kg ip ×10, 21 day): 30.0* %
- Volume of tumor ([2]; 100 mg/kg ip ×10, 25 day): 1301.0±912.3 mm^3
- T/C ([2]; 100 mg/kg ip ×10, 25 day): 32.6* %
- Volume of tumor ([2]; 200 mg/kg ip ×10, 1 day): 371.8±10.8 mm^3
- Volume of tumor ([2]; 200 mg/kg ip ×10, 2 day): 439.8±56.9 mm^3
- Volume of tumor ([2]; 200 mg/kg ip ×10, 4 day): 518.8±54.7 mm^3
- T/C ([2]; 200 mg/kg ip ×10, 4 day): 62.1* %
- Volume of tumor ([2]; 200 mg/kg ip ×10, 5 day): 610.5±15.2 mm^3
- T/C ([2]; 200 mg/kg ip ×10, 5 day): 55.9* %
- Volume of tumor ([2]; 200 mg/kg ip ×10, 6 day): 656.8±25.7 mm^3
- T/C ([2]; 200 mg/kg ip ×10, 6 day): 62.9**** %
- Volume of tumor ([2]; 200 mg/kg ip ×10, 7 day): 759.3±84.3 mm^3
- T/C ([2]; 200 mg/kg ip ×10, 7 day): 54.5** %
- Volume of tumor ([2]; 200 mg/kg ip ×10, 8 day): 852.0±126.7 mm^3
- T/C ([2]; 200 mg/kg ip ×10, 8 day): 58.1* %
- Volume of tumor ([2]; 200 mg/kg ip ×10, 9 day): 695.7±29.6 mm^3
- T/C ([2]; 200 mg/kg ip ×10, 9 day): 42.4*** %
- Volume of tumor ([2]; 200 mg/kg ip ×10, 10 day): 759.7±21.1 mm^3
- T/C ([2]; 200 mg/kg ip ×10, 10 day): 41.9** %
- Volume of tumor ([2]; 200 mg/kg ip ×10, 11 day): 816.7±16.7 mm^3
- T/C ([2]; 200 mg/kg ip ×10, 11 day): 39.3** %
- Volume of tumor ([2]; 200 mg/kg ip ×10, 13 day): 1070.0±41.0 mm^3
- T/C ([2]; 200 mg/kg ip ×10, 13 day): 39.9*** %
- Volume of tumor ([2]; 200 mg/kg ip ×10, 16 day): 1110.0±21.0 mm^3
- T/C ([2]; 200 mg/kg ip ×10, 16 day): 34.5*** %
- Volume of tumor ([2]; 200 mg/kg ip ×10, 18 day): 1446.0±75.0 mm^3
- T/C ([2]; 200 mg/kg ip ×10, 18 day): 33.9*** %
- Volume of tumor ([2]; 200 mg/kg ip ×10, 19 day): 1405.0±159.8 mm^3
- T/C ([2]; 200 mg/kg ip ×10, 19 day): 29.9*** %
- Volume of tumor ([2]; 200 mg/kg ip ×10, 22 day): 1583.3±145.2 mm^3
- T/C ([2]; 200 mg/kg ip ×10, 22 day): 30.9*** %
- Volume of tumor ([2]; 200 mg/kg ip ×10, 25 day): 1708.0±243.2 mm^3
- T/C ([2]; 200 mg/kg ip ×10, 25 day): 29.2*** %
- Volume of tumor ([2]; 200 mg/kg ip ×10, 30 day): 2033.7±430.9 mm^3
- T/C ([2]; 200 mg/kg ip ×10, 30 day): 27.2*** %
- Average number of days of survival ([3]; No. 1, 100 mg/kg, ip×9): 42.3 ± 3.0 days
- Number of toxically killed mice/total number of mice ([3]; No. 1, 100 mg/kg, ip×9): 0/8
- Change in body weight ([3]; No. 1, 100 mg/kg): +2.50 g
- T/control ([3]; No. 1, 100 mg/kg, ip×9, days of survival): 163.1
- Average number of days of survival ([3]; No. 2, 50 mg/kg, ip×9): 31.8±2.2(8) days
- Number of toxically killed mice/total number of mice ([3]; No. 2, 50 mg/kg, ip×9): 0/8
- Change in body weight ([3]; No. 2, 50 mg/kg): +1.68 g
- T/control ([3]; No. 2, 50 mg/kg, ip×9, days of survival): 131.8
- T/control ([3]; period of survival): 63.1%
